Measured values as given in patent publication US20100144733A1, “Compounds, compositions and methods comprising heteroaromatic derivatives” (Institute for OneWorld Health, priority 2008, published 2010).
Like-named read-outs stand apart in the source and are kept apart here.

Target: T1, CFTR (Homo sapiens, UniProt P13569)
T1 construct: endogenous in cells; host or cells: T84 human colonic cells (ECACC)
Test: T84 assay (FLIPR membrane potential dye, forskolin/IBMX-stimulated CFTR channel activity)
Assay type: cell-based
Experimental: (§1) For example, Human colonic T84 cells can be acquired from the European Collection of Cell Cultures (ECACC) and grown in standard culture conditions as described by the supplier. On the day before assay 25,000 T84 cells per well are plated into standard black walled, clear bottom 384-well assay plates in standard growth medium consisting of DMEM:F12 with 10% FBS and incubated overnight. On the day of the assay the plates are washed using a standard assay buffer (HBSS with 10 mM Hepes) and incubated for 15 minutes in serum free cell culture medium before the addition of a commercially available membrane potential sensitive fluorescent dye (FLIPRRed membrane potential dye, Molecular Devices Corporation). T84 cells are incubated with the FLIPRRed membrane potential dye for 45 minutes in the presence and absence of test compound before being transferred to a commercially available fluorescence imaging plate reader (FLIPR384, Molecular Devices Corporation). Fluorescence levels are monitored continuously every second for 150 seconds; after an initial 10 second baseline, CFTR channel activity is stimulated through the addition of 10 μM forskolin in the presence of 100 μM of the phosphodiesterase inhibitor iso-butyl-methylxanthine (IBMX). Addition of the forskolin leads to the activation of intracellular adenylyl cylase 1, elevating cAMP levels and results in the phosphorylation and opening of CFTR anion channels. CFTR channel opening causes chloride ion efflux and subsequent depolarization of the cells, which is measured by an increase in fluorescence. CFTR inihibitor compounds prevent cell depolarization and the associatred increase in fluorescence.
as §1, with “Human colonic” for “For example, Human colonic”, “T84 cells are acquired from” for “T84 cells can be acquired from”, “(ECACC) and are grown in” for “(ECACC) and grown in”, “10 μM Forskolin in the” for “10 μM forskolin in the”, “fluorescence. CFTR inhibitor compounds prevent” for “fluorescence. CFTR inihibitor compounds prevent”, “and the associated increase in” for “and the associatred increase in”

[1] = isoxazole-containing compounds (Table 10, 10′, 11, 11′), read-out: IC50
[2] = oxadiazole-containing compounds (a series), average of at least 2 runs unless annotated n = 1, read-out: IC50
[3] = imidazole and triazole-containing compounds (Tables 13, 14, 14′), read-out: IC50 (μM) (T84 assay)

T1 sequence (P13569 whole entry): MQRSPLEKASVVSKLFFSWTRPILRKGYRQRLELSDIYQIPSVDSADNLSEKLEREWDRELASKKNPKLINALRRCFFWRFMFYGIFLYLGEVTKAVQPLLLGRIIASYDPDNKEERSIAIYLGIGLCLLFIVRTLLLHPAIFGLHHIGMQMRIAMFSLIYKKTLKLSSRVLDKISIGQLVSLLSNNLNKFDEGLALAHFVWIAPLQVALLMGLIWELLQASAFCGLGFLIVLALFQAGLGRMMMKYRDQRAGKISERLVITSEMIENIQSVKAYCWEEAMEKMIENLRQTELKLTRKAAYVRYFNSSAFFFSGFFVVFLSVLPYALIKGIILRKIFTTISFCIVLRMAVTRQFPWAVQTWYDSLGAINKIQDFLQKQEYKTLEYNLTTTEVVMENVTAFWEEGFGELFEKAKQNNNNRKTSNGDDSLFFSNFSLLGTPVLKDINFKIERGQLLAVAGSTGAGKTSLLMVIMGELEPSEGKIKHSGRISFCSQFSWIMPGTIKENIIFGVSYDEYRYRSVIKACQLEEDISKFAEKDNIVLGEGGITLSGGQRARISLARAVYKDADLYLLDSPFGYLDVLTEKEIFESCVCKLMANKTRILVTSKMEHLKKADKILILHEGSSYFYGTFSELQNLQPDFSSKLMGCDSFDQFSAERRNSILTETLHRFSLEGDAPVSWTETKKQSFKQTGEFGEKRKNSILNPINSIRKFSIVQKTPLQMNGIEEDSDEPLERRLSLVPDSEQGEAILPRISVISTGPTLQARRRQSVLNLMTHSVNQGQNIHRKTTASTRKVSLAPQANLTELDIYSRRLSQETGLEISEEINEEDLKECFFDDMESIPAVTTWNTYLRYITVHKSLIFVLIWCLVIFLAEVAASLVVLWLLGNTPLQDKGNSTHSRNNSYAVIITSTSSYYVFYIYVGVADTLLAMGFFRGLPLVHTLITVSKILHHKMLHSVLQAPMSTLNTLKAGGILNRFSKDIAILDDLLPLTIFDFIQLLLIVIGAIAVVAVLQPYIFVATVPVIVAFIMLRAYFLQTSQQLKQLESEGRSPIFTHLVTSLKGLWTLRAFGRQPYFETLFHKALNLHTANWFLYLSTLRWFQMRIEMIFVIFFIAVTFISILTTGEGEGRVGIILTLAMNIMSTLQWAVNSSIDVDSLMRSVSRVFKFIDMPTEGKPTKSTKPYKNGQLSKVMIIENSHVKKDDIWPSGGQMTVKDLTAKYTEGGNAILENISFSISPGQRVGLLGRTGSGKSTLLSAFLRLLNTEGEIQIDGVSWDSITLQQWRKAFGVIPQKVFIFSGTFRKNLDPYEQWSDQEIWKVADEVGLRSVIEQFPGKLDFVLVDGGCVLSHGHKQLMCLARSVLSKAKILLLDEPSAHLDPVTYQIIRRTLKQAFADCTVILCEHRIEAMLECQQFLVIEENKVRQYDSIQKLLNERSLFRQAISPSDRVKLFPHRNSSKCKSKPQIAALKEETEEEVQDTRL

For `O=C(c1cc(-c2cc(Br)c(O)c(Br)c2)on1)N1CCN(c2ccc(Cl)c(Cl)c2)CC1` [10g, (5-(3,5-dibromo-4-hydroxyphenyl)isoxazol-3-yl)(4-(3,4-dichlorophenyl)piperazin-1-yl)methanone], the IC50 [1] was 7.4 µM.
`Oc1c(Cl)cc(-c2nnc(Oc3ccc(Oc4ccccc4)cc3)s2)cc1Cl` [10h, 2,6-dichloro-4-(5-(4-phenoxyphenoxy)-1,3,4-thiadiazol-2-yl)phenol] showed an IC50 (thiadiazole-containing compounds (Table 12), read-out: IC50) of 20.8 µM.
Work on `CN(Cc1cccc(C(F)(F)F)c1)C(=O)c1nc(-c2cc(Br)c(O)c(Br)c2)no1` [11a, 3-(3,5-dibromo-4-hydroxyphenyl)-N-methyl-N-(3-(trifluoromethyl)benzyl)-1,2,4-oxadiazole-5-carboxamide] yielded an IC50 [2] of 7.74 µM.
`COc1ccccc1N1CCN(C(=O)c2cc(-c3cc(Br)c(O)c(Br)c3)on2)CC1` [11g, (5-(3,5-dibromo-4-hydroxyphenyl)isoxazol-3-yl)(4(2-methoxyphenyl)piperazin-1-yl)methanone] was tested, and the IC50 [1] was 14.2 µM.
With `O=C(NCc1cccc(OC(F)(F)F)c1)c1nc(-c2cc(Br)c(O)c(Br)c2)no1` [12a, 3-(3,5-dibromo-4-hydroxyphenyl)-N-(3-(trifluoromethoxy)benzyl)-1,2,4-oxadiazole-5-carboxamide] the IC50 [2] was 7.89 µM.
With `O=C(c1cc(-c2cc(Cl)c(O)c(Cl)c2)on1)N1CCC(Cc2ccccc2)CC1` [12g, (4-benzylpiperidin-1-yl)(5-(3,5-dichloro-4-hydroxyphenyl)isoxazol-3-yl)methanone] the IC50 [1] was 6.51 µM.
Work on `O=C(NCCC(c1ccccc1)c1ccccc1)c1nc(-c2cc(Br)c(O)c(Br)c2)no1` [14a, 3-(3,5-dibromo-4-hydroxyphenyl)-N-(3,3-diphenylpropyl)-1,2,4-oxadiazole-5-carboxamide] yielded an IC50 [2] of 8.92 µM.
With `O=C(NC(c1ccccc1)c1ccccc1)c1nc(-c2cc(Cl)c(O)c(Cl)c2)no1` [15a, N-benzhydryl-3-(3,5-dichloro-4-hydroxyphenyl)-1,2,4-oxadiazole-5-carboxamide] the IC50 [2] was 9 µM.
With `O=C(c1nc(-c2cc(Br)c(O)c(Br)c2)no1)N1CCN(c2ccccc2)CC1` [16a, (3-(3,5-dibromo-4-hydroxyphenyl)-1,2,4-oxadiazol-5-yl)(4-phenylpiperazin-1-yl)methanone] the IC50 [2] was 9.13 µM.
For `O=C(c1nc(-c2cc(Br)c(O)c(Br)c2)no1)N1CCC(Cc2ccccc2)CC1` [18a, (4-benzylpiperidin-1-yl)(3-(3,5-dibromo-4-hydroxyphenyl)-1,2,4-oxadiazol-5-yl)methanone], the IC50 [2] was 12.3 µM.
In the case of `O=C(c1nc(-c2cc(Br)c(O)c(Br)c2)no1)N1CCN(c2ccc(Cl)cc2F)CC1` [19a, (4-(4-chloro-2-fluorophenyl)piperazin-1-yl)(3-(3,5-dibromo-4-hydroxyphenyl)-1,2,4-oxadiazol-5-yl)methanone], the IC50 [2] is reported as 7.1 µM.
`O=C(NCc1cc(C(F)(F)F)cc(C(F)(F)F)c1)c1nc(-c2cc(Br)c(O)c(Br)c2)no1` [20a, N-(3,5-bis(trifluoromethyl)benzyl)-3-(3,5-dibromo-4-hydroxyphenyl)-1,2,4-oxadiazole-5-carboxamide] showed an IC50 [2] of 10.5 µM.
Work on `O=C(c1nc(-c2cc(Br)c(O)c(Br)c2)no1)N(Cc1cccc(C(F)(F)F)c1)Cc1cccc(C(F)(F)F)c1` [21a, 3-(3,5-dibromo-4-hydroxyphenyl)-N,N-bis(3-(trifluoromethyl)benzyl)-1,2,4-oxadiazole-5-carboxamide] yielded an IC50 [2] of 10.9 µM.
In the case of `CN(C(=O)c1ncn(-c2cc(Cl)c(O)c(Cl)c2)n1)c1ccc(OC(F)(F)F)cc1` [21i], the IC50 [3] is reported as 15.7 µM.
In the case of `O=C(NCc1ccc(Cl)c(Cl)c1)c1nc(-c2cc(Br)c(O)c(Br)c2)no1` [22a, 3-(3,5-dibromo-4-hydroxyphenyl)-N-(3,4-dichlorobenzyl)-1,2,4-oxadiazole-5-carboxamide], the IC50 [2] is reported as 11 µM.
With `CN(Cc1ccc(Cl)cc1)C(=O)c1ncn(-c2cc(Cl)c(O)c(Cl)c2)n1` [22i, N-(4-chlorobenzyl)-1-(3,5-dichloro-4-hydroxyphenyl)-N-methyl-1H-1,2,4-triazole-3-carboxamide] the IC50 [3] was 18.1 µM.
Work on `O=C(NCc1cccc(F)c1)c1nc(-c2cc(Br)c(O)c(Br)c2)no1` [23a, 3-(3,5-dibromo-4-hydroxyphenyl)-N-(3-fluorobenzyl)-1,2,4-oxadiazole-5-carboxamide] yielded an IC50 [2] of 12.7 µM.
For `O=C(Nc1cccc(OC(F)(F)F)c1)c1nc(-c2cc(Br)c(O)c(Br)c2)no1` [24a, 3-(3,5-Dibromo-4-hydroxyphenyl)-N-(3-(trifluoromethoxy)phenyl)-1,2,4-oxadiazole-5-carboxamide], the IC50 [2] was 13.1 µM.
`CC(C)(C)c1ccc(N2CCN(C(=O)c3nc(-c4cc(Br)c(O)c(Br)c4)no3)CC2)cc1` [25a, (4-(4-tert-butylphenyl)piperazin-1-yl)(3-(3,5-dibromo-4-hydroxyphenyl)-1,2,4-oxadiazol-5-y1)methanone] was tested, and the IC50 [2] was 10.9 µM.
`O=C(NCc1cccc(-c2ccccc2)c1)c1ncn(-c2cc(Cl)c(O)c(Cl)c2)n1` [25i, N-(biphenyl-3-ylmethyl)-1-(3,5-dichloro-4-hydroxyphenyl)-1H-1,2,4-triazole-3-carboxamide] gave an IC50 [3] of 3.7 µM.
With `COc1ccccc1N1CCN(C(=O)c2nc(-c3cc(Br)c(O)c(Br)c3)no2)CC1` [26a, (3-(3,5-dibromo-4-hydroxyphenyl)-1,2,4-oxadiazol-5-yl)(4-(2-methoxyphenyl)piperazin-1-yl)methanone] the IC50 [2] was 14.5 µM.
`CN(C)c1cccc(CNC(=O)c2ncn(-c3cc(Cl)c(O)c(Cl)c3)n2)c1` [26i, 1-(3,5-dichloro-4-hydroxyphenyl)-N-(3-(dimethylamino)benzyl)-1H-1,2,4-triazole-3-carboxamide] gave an IC50 [3] of 3.92 µM.
In the case of `O=C(NCc1cccc(C(F)(F)F)c1)c1nc(-c2cc(Br)c(O)c(Br)c2)no1` [27a, 3-(3,5-dibromo-4-hydroxyphenyl)-N-(3-(trifluoromethyl)benzyl)-1,2,4-oxadiazole-5-carboxamide], the IC50 [2] is reported as 14.6 µM.
`O=C(NCc1cc(Cl)ccc1F)c1ncn(-c2cc(Cl)c(O)c(Cl)c2)n1` [27i, N-(5-chloro-2-fluorobenzyl)-1-(3,5-dichloro-4-hydroxyphenyl)-1H-1,2,4-triazole-3-carboxamide] showed an IC50 [3] of 24.4 µM.
`CN(Cc1ccccc1)C(=O)c1nc(-c2cc(Br)c(O)c(Br)c2)no1` [28a, N-benzyl-3-(3,5-dibromo-4-hydroxyphenyl)-N-methyl-1,2,4-oxadiazole-5-carboxamide] showed an IC50 [2] of 15.3 µM.
`CC(C)Oc1ccc(CNC(=O)c2ncn(-c3cc(Cl)c(O)c(Cl)c3)n2)cc1` [28i, 1-(3,5-dichloro-4-hydroxyphenyl)-N-(4-isopropoxybenzyl)-1H-1,2,4-triazole-3-carboxamide] was tested, and the IC50 [3] was 16.8 µM.
Compound `O=C(NCc1ccc(OC(F)(F)F)cc1)c1nc(-c2cc(Br)c(O)c(Br)c2)no1` [29a, 3-(3,5-Dibromo-4-hydroxyphenyl)-N-(4-(trifluoromethoxy)benzyl)-1,2,4-oxadiazole-5-carboxamide] has an IC50 [2] of 13.8 µM.
Compound `O=C(NCc1ccc(F)c(C(F)(F)F)c1)c1ncn(-c2cc(Cl)c(O)c(Cl)c2)n1` [29i, 1-(3,5-dichloro-4-hydroxyphenyl)-N-(4-fluoro-3-(trifluoromethyl)benzyl)-1H-1,2,4-triazole-3-carboxamide] has an IC50 [3] of 7.52 µM.
For `O=C(NCc1ccc(Cl)c(C(F)(F)F)c1)c1nc(-c2cc(Br)c(O)c(Br)c2)no1` [30a, N-(4-chloro-3-(trifluoromethyl)benzyl)-3-(3,5-dibromo-4-hydroxyphenyl)-1,2,4-oxadiazole-5-carboxamide], the IC50 [2] was 16.2 µM.
Work on `O=C(NCc1ccccc1Cl)c1ncn(-c2cc(Cl)c(O)c(Cl)c2)n1` [30i, N-(2-chlorobenzyl)-1-(3,5-dichloro-4-hydroxyphenyl)-1H-1,2,4-triazole-3-carboxamide] yielded an IC50 [3] of 27.8 µM.
Compound `O=C(c1nc(-c2cc(Br)c(O)c(Br)c2)no1)N1CCN(c2ccc(F)cc2F)CC1` [31a] has an IC50 [2] of 17.1 µM.
Work on `O=C(c1nc(-c2cc(Br)c(O)c(Br)c2)no1)N1CCN(c2cccc(F)c2)CC1` [32a, (3-(3,5-dibromo-4-hydroxyphenyl)-1,2,4-oxadiazol-5-yl)(4-(3-fluorophenyl)piperazin-1-yl)methanone] yielded an IC50 [2] of 17.2 µM.
Compound `CC(NC(=O)c1ncn(-c2cc(Cl)c(O)c(Cl)c2)n1)c1ccc(Br)cc1` (stereo not drawn) [32i, N-(1-(4-bromophenyl)ethyl)-1-(3,5-dichloro-4-hydroxyphenyl)-1H-1,2,4-triazole-3-carboxamide] has an IC50 [3] of 10.3 µM.
